Experiment [1] has as its target T1, Adenosine A2 receptor (Rattus norvegicus, UniProt P29276+P30543).
The target in a further experiment is T2, Adenosine receptor A1 (Rattus norvegicus, UniProt P25099).
T2 sequence (P25099 whole entry): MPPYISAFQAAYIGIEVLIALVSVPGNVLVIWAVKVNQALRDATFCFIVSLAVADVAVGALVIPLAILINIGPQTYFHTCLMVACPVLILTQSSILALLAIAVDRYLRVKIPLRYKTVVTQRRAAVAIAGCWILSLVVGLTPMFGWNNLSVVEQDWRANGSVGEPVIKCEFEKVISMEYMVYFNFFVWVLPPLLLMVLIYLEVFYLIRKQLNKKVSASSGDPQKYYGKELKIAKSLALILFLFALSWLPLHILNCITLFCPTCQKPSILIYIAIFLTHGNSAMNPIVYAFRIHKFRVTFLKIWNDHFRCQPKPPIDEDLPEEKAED
The experiment can be described thus: biochemical.

Experiment [2] has as its target T1, Adenosine A2 receptor. The experiment can be described thus: Binding affinity at adenosine A2 receptor from rat striatal membranes by [3H]NECA displacement.

Broadly, the Ki is a measure of affinity in units of concentration, obtained from inhibition or displacement.

Description for Adenosine receptor A1: Binding affinity at adenosine A1 receptor from rat brain membranes by [3H]N6-cyclohexyladenosine displacement.

Regarding `COc1cc(OC)cc(C(CNc2ncnc3c2ncn3C2O[C@H](CO)[C@@H](O)[C@H]2O)c2ccccc2)c1` (some centres not stated), the Ki at Adenosine A2 receptor [1] turned out to be 6.1 nM; at Adenosine receptor A1 it was 30.2 nM.
For `COc1cc(OC)cc(C(CNc2ncnc3c2ncn3C2O[C@H](CO)[C@@H](O)[C@H]2O)c2c(C)cccc2C)c1` (some centres not stated), the Ki is 19.5 nM on Adenosine A2 receptor [1] and 140 nM on Adenosine receptor A1.
In the case of `CNC(=O)[C@H]1OC(n2cnc3c(NCC(c4cc(OC)cc(OC)c4)c4ccccc4C)ncnc32)[C@H](O)[C@@H]1O` (some centres not stated), the Ki is 43 nM on Adenosine A2 receptor [2] and 1010 nM on Adenosine receptor A1.
Take `Cc1cccc(C)c1C(CNc1ncnc2c1ncn2C1O[C@H](CO)[C@@H](O)[C@H]1O)c1ccccc1` (some centres not stated): the Ki on Adenosine A2 receptor [1] came to 62 nM; on Adenosine receptor A1, 229 nM.
With `OC[C@H]1OC(n2cnc3c(NCC(c4cccc(Cl)c4)c4cccc(Cl)c4)ncnc32)[C@H](O)[C@@H]1O` (some centres not stated), the Ki at Adenosine A2 receptor [1] is 6 nM; at Adenosine receptor A1 it was 2.6 nM.
With `COc1cc(OC)cc(C(CNc2ncnc3c2ncn3[C@@H]2O[C@H](CO)[C@@H](O)[C@H]2O)c2ccccc2C)c1` (stereo in doubt; 16), the Ki on Adenosine A2 receptor [1] was found to be 4.4 nM; at Adenosine receptor A1 it was 142 nM.
As for `COc1cc(OC)cc(C(CNc2ncnc3c2ncn3C2O[C@H](C(=O)NC3CC3)[C@@H](O)[C@H]2O)c2ccccc2C)c1` (some centres not stated), the results for the Ki at Adenosine A2 receptor [2] and on Adenosine receptor A1 were 8.7 nM and 232 nM, respectively.
As to `Cc1cccc(C(CNc2ncnc3c2ncn3C2O[C@H](CO)[C@@H](O)[C@H]2O)c2cccc(C)c2)c1` (some centres not stated), the Ki at Adenosine A2 receptor [1] came to 18.8 nM; at Adenosine receptor A1, 9.3 nM.
Turning to `COc1cc(OC)cc(C(CNc2ncnc3c2ncn3[C@@H]2O[C@H](CO)[C@@H](O)[C@H]2O)c2ccccc2C)c1` (single isomer, unassigned; (+)), the results for the Ki at Adenosine A2 receptor [1] and at Adenosine receptor A1 were 6.2 nM and 188 nM, respectively.
At Adenosine A2 receptor [1], `Nc1nc(Nc2ccccc2)nc2c1ncn2[C@@H]1O[C@H](CO)[C@@H](O)[C@H]1O` displayed a Ki of 116 nM. In other words, the sub-micromolar range.
As for `OC[C@H]1O[C@@H](n2cnc3c(NCc4cccc5ccccc45)ncnc32)[C@H](O)[C@@H]1O`, on Adenosine A2 receptor [1], the Ki was found to be 9.4 nM.
For `CCNC(=O)[C@H]1OC(n2cnc3c(NCC(c4cc(OC)cc(OC)c4)c4ccccc4C)ncnc32)[C@H](O)[C@@H]1O` (some centres not stated), the Ki was found to be 5.6 nM at Adenosine A2 receptor [2] and 207 nM at Adenosine receptor A1.
As for `OC[C@H]1OC(n2cnc3c(NCC(c4ccccc4)c4c(Cl)cccc4Cl)ncnc32)[C@H](O)[C@@H]1O` (some centres not stated), the inhibitory constant (Ki) came out at 19 nM at Adenosine A2 receptor [1] and 61 nM at Adenosine receptor A1.
For `COc1cc(OC)cc(C(CNc2ncnc3c2ncn3[C@@H]2O[C@H](CO)[C@@H](O)[C@H]2O)c2ccccc2C)c1` (single isomer, unassigned), the Ki on Adenosine A2 receptor [1] was 3.1 nM; on Adenosine receptor A1 it was 118 nM.
As for `OC[C@H]1OC(n2cnc3c(NCC(c4ccccc4)c4cc(Cl)cc(Cl)c4)ncnc32)[C@H](O)[C@@H]1O` (some centres not stated), at Adenosine receptor A1, the Ki is 18.4 nM. This counts as double-digit nanomolar.

The values are drawn from ChEMBL document CHEMBL1124142, “N6-[2-(3,5-dimethoxyphenyl)-2-(2-methylphenyl)ethyl]adenosine and its uronamide derivatives. Novel adenosine agonists with both high affinity and high selectivity for the adenosine A2 receptor” (J Med Chem, 1988).
